Type in all cases: functional
Assay [1] relates to Staphylococcus aureus. The assay can be described thus: Compound was evaluated for antibacterial activity against Staphylococcus aureus 133 compared to imipenem.
A further assay has as its system Providencia rettgeri. The experiment in a line: Compound was evaluated for antibacterial activity against Proteus rettgeri 10007 compared to imipenem.
In assay [2] the test system is Enterobacter cloacae. The assay can be described thus: Compound was evaluated for antibacterial activity against Enterobacter cloacae 5744 compared to imipenem.
Assay [3] has as its system Serratia. The experiment in a line: Compound was evaluated for antibacterial activity against serratia 16002 compared to imipenem.
The next assay relates to Acinetobacter. The assay can be described thus: (§1) Compound was evaluated for antibacterial activity against Acinetobacter 14601 compared to imipenem.
In the next assay the test system is Pseudomonas aeruginosa. The experiment in a line: Compound was evaluated for antibacterial activity against Pseudomonas aeruginosa F 41 compared to imipenem.
In assay [4] the test system is Staphylococcus. The experiment in a line: Compound was evaluated for antibacterial activity against Staphylococcus 25455 compared to imipenem.
Assay [5] relates to Serratia. The experiment in a line: Compound was evaluated for antibacterial activity against serratia 16001 compared to imipenem.
Assay [6] deals with Escherichia coli. The assay can be described thus: Compound was evaluated for antibacterial activity against Escherichia coli F14 compared to imipenem.
The next assay has as its system Proteus vulgaris. The experiment in a line: Compound was evaluated for antibacterial activity against Proteus vulgaris N6 compared to imipenem.
In assay [7] the test system is Escherichia coli. The assay can be described thus: Compound was evaluated for antibacterial activity against Escherichia coli Neumann compared to imipenem.
Assay [8] concerns Klebsiella. The experiment in a line: Compound was evaluated for antibacterial activity against Klebsiella 63 compared to imipenem.
The test system of assay [9] is Staphylococcus. The experiment in a line: Compound was evaluated for antibacterial activity against Staphylococcus 25470 compared to imipenem.
For a further assay, the system named is Morganella morganii. The experiment in a line: Compound was evaluated for antibacterial activity against Proteus morganii.932 compared to imipenem.
A further assay concerns Proteus mirabilis. The experiment in a line: Compound was evaluated for antibacterial activity against Proteus mirabilis 1235 compared to imipenem.
Assay [10] has as its system Klebsiella. The assay can be described thus: Compound was evaluated for antibacterial activity against Klebsiella 57USA compared to imipenem.
Assay [11] concerns Staphylococcus aureus. The assay can be described thus: Compound was evaluated for antibacterial activity against Staphylococcus aurues 133 compared to imipenem.
Assay [12] concerns Staphylococcus. The assay can be described thus: Tested for antibacterial activity against Staphylococcus 25470 compared to imipenem.
For another assay, the system named is Acinetobacter sp. The description is as §1.
The test system of assay [13] is Enterobacter cloacae. The assay can be described thus: Compound was evaluated for antibacterial activity against Enterob. cl.5744 compared to imipenem.

≈ marks a conversion by molar mass, not a printed value.

By MIC is commonly meant the least concentration at which growth counts as inhibited.

Turning to `C[C@@H](O)[C@H]1C(=O)N2C(C(=O)[O-])=C3c4ccccc4SC[C@@H]3[C@H]12.[Na+]`, the MIC in the assay on Staphylococcus aureus [1] was below 0.25 µg/mL; against Providencia rettgeri, 2 µg/mL; in the assay with Enterobacter cloacae [2] it was 4 µg/mL; with Serratia [3] it was 16 µg/mL; in the assay on Acinetobacter it was 4 µg/mL; in the assay with Pseudomonas aeruginosa, 128 µg/mL. Moreover, the MIC against Staphylococcus [4] was below 0.25 µg/mL; with Serratia [5], 8 µg/mL; with Escherichia coli [6], 8 µg/mL; against Proteus vulgaris, below 0.25 µg/mL; against Escherichia coli [7], 0.5 µg/mL; with Klebsiella [8], 2 µg/mL. In addition, the minimal inhibitory concentration (MIC) in the assay with Staphylococcus [9] is 8 µg/mL; against Morganella morganii, 1 µg/mL; against Proteus mirabilis it was below 0.25 µg/mL; against Klebsiella [10], 4 µg/mL.

For `C[C@@H](O)[C@H]1C(=O)N2C(C(=O)[O-])=C3c4ccsc4CC[C@@H]3[C@H]12.[Na+]`, the minimal inhibitory concentration (MIC) is 1 µg/mL against Staphylococcus aureus [11]; 4 µg/mL against Providencia rettgeri; 8 µg/mL against Enterobacter cloacae [2]; 32 µg/mL in the assay on Serratia [3]; 16 µg/mL with Acinetobacter; 128 µg/mL in the assay with Pseudomonas aeruginosa. In addition, the MIC in the assay on Staphylococcus [4] was 1 µg/mL; in the assay on Serratia [5] it was 32 µg/mL; with Escherichia coli [6], 8 µg/mL; in the assay with Proteus vulgaris, below 0.25 µg/mL; with Escherichia coli [7] it was 1 µg/mL; against Klebsiella [8], 4 µg/mL. Also, the MIC against Staphylococcus [9] is 32 µg/mL; in the assay on Morganella morganii, 2 µg/mL; against Proteus mirabilis, 1 µg/mL; with Klebsiella [10], 4 µg/mL.

On to `C[C@@H](O)[C@H]1C(=O)N2C(C(=O)[O-])=C3c4ccccc4CCC[C@@H]3[C@H]12.[Na+]`, for which the MIC in the assay on Staphylococcus [12] turned out to be 128 µg/mL; against Staphylococcus aureus [1], 0.5 µg/mL; with Providencia rettgeri, 16 µg/mL; with Enterobacter cloacae [2] it was 32 µg/mL; with Serratia [3] it was 64 µg/mL; with Acinetobacter, 64 µg/mL. Besides, the MIC came to 128 µg/mL in the assay on Pseudomonas aeruginosa; 0.5 µg/mL in the assay with Staphylococcus [4]; 64 µg/mL with Serratia [5]; 16 µg/mL in the assay with Escherichia coli [6]; 1 µg/mL against Proteus vulgaris; 2 µg/mL against Escherichia coli [7]. Besides, the minimal inhibitory concentration (MIC) against Klebsiella [8] amounted to 16 µg/mL; with Morganella morganii, 16 µg/mL; against Proteus mirabilis, 0.5 µg/mL; in the assay with Klebsiella [10], 1 µg/mL.

In the case of `C[C@@H](O)[C@H]1C(=O)N2C(C(=O)O)=C(SCCNC=N)C[C@H]12` [IMIPENEM ANHYDROUS], the MIC with Staphylococcus aureus [1] is below 0.25 µg/mL; against Providencia rettgeri, 2 µg/mL (≈ 6.68 µM); against Serratia [3], 0.5 µg/mL (≈ 1.67 µM); against Acinetobacter sp., below 0.25 µg/mL; with Pseudomonas aeruginosa, 2 µg/mL (≈ 6.68 µM); with Staphylococcus [4], below 0.25 µg/mL. In addition, the MIC against Serratia [5] was below 0.25 µg/mL; with Escherichia coli [6] it was below 0.25 µg/mL; with Proteus vulgaris, 0.5 µg/mL (≈ 1.67 µM); in the assay on Escherichia coli [7] it was below 0.25 µg/mL; in the assay with Klebsiella [8], below 0.25 µg/mL; with Enterobacter cloacae [13] it was 0.5 µg/mL (≈ 1.67 µM). Further, the MIC in the assay on Staphylococcus [9] is 32 µg/mL (≈ 107 µM); against Morganella morganii, 0.5 µg/mL (≈ 1.67 µM); with Proteus mirabilis, 4 µg/mL (≈ 13.4 µM); against Klebsiella [10], below 0.25 µg/mL.

(Values after ChEMBL document CHEMBL1127132, “Synthesis and biological activity of tetracyclic carbapenems” (1993).)
